In patent publication US10851098B2, “Azole amides and amines as alpha v integrin inhibitors” (BRISTOL-MYERS SQUIBB COMPANY, priority 2016, dated 2020):

The compounds below were run against T1, human αVβ6 (Homo sapiens, UniProt P06756+P18564) (assay: human αVβ6 HTRF binding assay).
T1 construct: purchased R & D systems 3817-AV
Method: All binding assays used the HTRF (homogeneous time resolved fluorescence) technology from Cisbio International, therefore all assays are described as HTRF binding assays. The assay results for the Examples are listed above together with the characterization data. The HTRF binding assays are established for the following integrins: human αVβ6, human αVβ1, human αVβ3, human αVβ5, and human αVβ8. All assays used the following assay buffer: 20 mM Tris, pH 7.4, 1 mM MgCl2, 1 mM MnCl2, 0.01% Tween 20, and 0.01% BSA. Alternatively, a SPA-based assay was used for evaluation of receptor binding.
[…]

T1 sequence (P06756 31-992 limits assumed): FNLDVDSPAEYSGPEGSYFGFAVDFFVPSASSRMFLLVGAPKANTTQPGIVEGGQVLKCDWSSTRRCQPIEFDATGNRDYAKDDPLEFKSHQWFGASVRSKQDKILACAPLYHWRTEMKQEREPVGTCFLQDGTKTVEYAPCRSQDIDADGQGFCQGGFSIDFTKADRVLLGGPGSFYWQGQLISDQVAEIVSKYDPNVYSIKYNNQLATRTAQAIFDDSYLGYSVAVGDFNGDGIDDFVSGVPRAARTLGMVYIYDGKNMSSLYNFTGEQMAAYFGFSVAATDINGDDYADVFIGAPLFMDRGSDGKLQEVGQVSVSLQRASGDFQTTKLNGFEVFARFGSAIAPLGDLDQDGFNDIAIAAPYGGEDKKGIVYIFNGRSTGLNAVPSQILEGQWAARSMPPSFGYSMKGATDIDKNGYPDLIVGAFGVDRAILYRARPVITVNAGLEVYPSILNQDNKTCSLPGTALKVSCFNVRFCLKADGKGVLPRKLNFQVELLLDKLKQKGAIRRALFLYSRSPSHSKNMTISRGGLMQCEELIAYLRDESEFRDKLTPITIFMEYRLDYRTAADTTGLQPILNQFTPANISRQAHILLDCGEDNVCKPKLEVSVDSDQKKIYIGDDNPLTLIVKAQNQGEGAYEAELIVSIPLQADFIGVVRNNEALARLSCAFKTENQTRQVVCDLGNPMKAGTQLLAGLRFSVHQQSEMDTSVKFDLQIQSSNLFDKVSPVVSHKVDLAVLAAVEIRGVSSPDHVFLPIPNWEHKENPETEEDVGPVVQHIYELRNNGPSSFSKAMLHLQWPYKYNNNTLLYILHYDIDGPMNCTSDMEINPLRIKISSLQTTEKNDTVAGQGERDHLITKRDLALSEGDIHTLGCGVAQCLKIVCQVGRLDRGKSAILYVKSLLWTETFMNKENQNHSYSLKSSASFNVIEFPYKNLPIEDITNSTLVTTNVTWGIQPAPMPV
T1 sequence (P18564 22-707 limits assumed): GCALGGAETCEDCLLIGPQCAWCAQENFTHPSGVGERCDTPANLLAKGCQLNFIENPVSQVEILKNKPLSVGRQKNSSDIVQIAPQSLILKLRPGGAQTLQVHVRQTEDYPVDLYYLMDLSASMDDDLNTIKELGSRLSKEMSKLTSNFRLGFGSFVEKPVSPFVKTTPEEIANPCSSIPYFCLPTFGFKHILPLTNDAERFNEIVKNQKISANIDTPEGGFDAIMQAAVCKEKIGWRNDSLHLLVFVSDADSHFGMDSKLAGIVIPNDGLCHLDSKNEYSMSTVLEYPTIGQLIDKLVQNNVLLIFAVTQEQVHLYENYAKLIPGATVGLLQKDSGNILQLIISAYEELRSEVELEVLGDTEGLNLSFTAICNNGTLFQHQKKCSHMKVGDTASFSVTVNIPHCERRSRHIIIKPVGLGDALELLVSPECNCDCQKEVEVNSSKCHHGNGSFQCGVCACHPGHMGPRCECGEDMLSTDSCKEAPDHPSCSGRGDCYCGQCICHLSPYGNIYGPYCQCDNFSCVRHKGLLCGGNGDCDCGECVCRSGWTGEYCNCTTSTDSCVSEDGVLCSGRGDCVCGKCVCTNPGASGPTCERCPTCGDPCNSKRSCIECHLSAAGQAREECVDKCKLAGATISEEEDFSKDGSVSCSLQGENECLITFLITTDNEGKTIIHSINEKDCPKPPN

Row | IC50 | SMILES
1 | 11 nM | O=C(O)CC(NC(=O)c1cnn(CCc2ccc3c(n2)NCCC3)c1CO)c1cccc(OC(F)(F)F)c1 (stereo not shown) [Example 36]
2 | 12 nM | Cc1cc(C)n(-c2cccc(C(CC(=O)O)NC(=O)c3cnn(CCc4ccc5c(n4)NCCC5)c3COC(C)(C)C)c2)n1 (stereo not shown) [Example 37]
3 | 13 nM | O=C(O)CC(NC(=O)c1cnn(CCc2ccc3c(n2)NCCC3)c1CO)c1cccc(Oc2cc(Cl)cc(Cl)c2)c1 (stereo not shown) [Example 38]
4 | 15 nM | COc1ccc([C@H](CC(=O)O)NC(=O)c2cnn(CCc3ccc4c(n3)NCCC4)c2)cc1F [Example 39]
5 | 14 nM | CN(C(=O)c1cnn(CCc2ccc3c(n2)NCCC3)c1CO)C(CC(=O)O)c1cc(Cl)cc(Cl)c1 (stereo not shown) [Example 40]
6 | 14 nM | CC(C)(C)OCc1c(C(=O)NC(CC(=O)O)c2cc(Cl)cc(Cl)c2)cnn1CCc1ccc2c(n1)NCCC2 (stereo not shown) [Example 41]
7 | 16 nM | Cc1cc(C)n(-c2cccc(C(CC(=O)O)NC(=O)c3cnn(CCc4ccc5c(n4)NCCC5)c3CO)c2)n1 (stereo not shown) [Example 42]
8 | 16 nM | COc1ccc([C@H](CC(=O)O)NC(=O)c2cnn(CCc3ccc4c(n3)NCCC4)c2CO)cn1 [Example 43]
9 | 16 nM | O=C(O)CC(NC(=O)c1cnn(CCc2ccc3c(n2)NCCC3)c1CO)c1cccc(C(F)(F)F)c1 (stereo not shown) [Example 44]
10 | 18 nM | CN(C(=O)c1cnn(CCCc2ccc3c(n2)NCCC3)c1)[C@@H](CC(=O)O)c1cc(Cl)cc(Cl)c1 [Example 45]
11 | 21 nM | COc1ccc([C@H](CC(=O)O)NC(=O)c2cnn(CCc3ccc4c(n3)NCCC4)c2)cn1 [Example 46]
12 | 22 nM | O=C(O)CC(NC(=O)c1cnn(CCc2ccc3c(n2)NCCC3)c1CO)c1cc(Cl)cc(Cl)c1 (stereo not shown) [Example 47]
13 | 22 nM | CN(C(=O)c1cn(CCc2ccc3c(n2)NCCC3)nc1C(F)(F)F)[C@@H](CC(=O)O)c1cc(Cl)cc(Cl)c1 [Example 48]
14 | 23 nM | Cc1c(C(=O)NC(CC(=O)O)c2cc(Cl)cc(Cl)c2)cnn1CCc1ccc2c(n1)NCCC2 (stereo not shown) [Example 49]
15 | 26 nM | COc1ccc([C@H](CC(=O)O)NC(=O)c2cnn(CCc3ccc4c(n3)NCCC4)c2COC(C)(C)C)cc1F [Example 50]
16 | 28 nM | CC(C)(C)OCc1c(C(=O)NC(CC(=O)O)c2cccc(Oc3cc(Cl)cc(Cl)c3)c2)cnn1CCc1ccc2c(n1)NCCC2 (stereo not shown) [Example 51]
17 | 29 nM | Cc1ccc(C(CC(=O)O)NC(=O)c2cnn(CCc3ccc4c(n3)NCCC4)c2CO)cc1C (stereo not shown) [Example 52]
18 | 30 nM | N#Cc1cccc(C(CC(=O)O)NC(=O)c2cnn(CCc3ccc4c(n3)NCCC4)c2CO)c1 (stereo not shown) [Example 53]
19 | 30 nM | COc1ccc([C@H](CC(=O)O)NC(=O)c2cn(CCc3ccc4c(n3)NCCC4)nc2C)cc1F [Example 54]
20 | 32 nM | Cc1cccc(C(CC(=O)O)NC(=O)c2cnn(CCc3ccc4c(n3)NCCC4)c2CO)c1 (stereo not shown) [Example 55]
21 | 37 nM | O=C(O)CC(NC(=O)c1cnn(CCc2ccc3c(n2)NCCC3)c1)c1ccc2c(c1)OCO2 (stereo not shown) [Example 56]
22 | 40 nM | Cc1nn(CCc2ccc3c(n2)NCCC3)c(C)c1C(=O)NC(CC(=O)O)c1ccc(Cl)c(Cl)c1 (stereo not shown) [Example 57]
23 | 40 nM | O=C(O)CC(NC(=O)c1cnn(CCc2ccc3c(n2)NCCC3)c1CO)c1ccc(Cl)c(Cl)c1 (stereo not shown) [Example 58]

Row | IC50 | SMILES
24 | 40 nM | CC(C)(C)OCc1c(C(=O)NC(CC(=O)O)c2cc(Cl)cc(Cl)c2)cnn1CCCc1ccc2c(n1)NCCC2 (stereo not shown) [Example 59]
25 | 46 nM | O=C(O)C[C@H](NC(=O)c1cnn(CCCc2ccc3c(n2)NCCC3)c1)c1cc(Cl)cc(Cl)c1 [Example 60]
26 | 49 nM | CC(C)(C)c1cc(Br)cc([C@H](CC(=O)O)NC(=O)c2cnn(CCCc3ccc4c(n3)NCCC4)c2)c1 [Example 61]
27 | 49 nM | O=C(O)CC(NC(=O)c1cnn(CCc2ccc3c(n2)NCCC3)c1CO)c1ccc(C(F)(F)F)cc1 (stereo not shown) [Example 62]
28 | 56 nM | CC(C)(C)c1cc(Br)cc([C@H](CC(=O)O)NC(=O)c2cn(CCc3ccc4c(n3)NCCC4)nc2C(F)(F)F)c1 [Example 63]
29 | 64 nM | O=C(O)CC(NC(=O)c1cnn(CCc2ccc3c(n2)NCCC3)c1CO)c1cccc(-n2cccc2)c1 (stereo not shown) [Example 64]
30 | 64 nM | O=C(O)CC(NC(=O)c1cnn(CCc2ccc3c(n2)NCCC3)c1CO)c1ccc2c(c1)OCO2 (stereo not shown) [Example 65]
31 | 91 nM | Cc1ccc(C(CC(=O)O)NC(=O)c2cnn(CCc3ccc4c(n3)NCCC4)c2CO)cc1 (stereo not shown) [Example 66]
32 | 95 nM | O=C(O)CC(NC(=O)c1cnn(CCc2ccc3c(n2)NCCC3)c1CO)c1ccc(Cl)cc1 (stereo not shown) [Example 67]
33 | 98 nM | O=C(O)CC(NC(=O)c1cnn(CCCc2ccc3c(n2)NCCC3)c1CO)c1cc(Cl)cc(Cl)c1 (stereo not shown) [Example 68]
34 | 111 nM | O=C(O)CC(NC(=O)c1cnn(CCc2ccc3c(n2)NCCC3)c1-c1ccccc1)c1cc(Cl)cc(Cl)c1 (stereo not shown) [Example 69]
35 | 112 nM | Cc1nn(CCc2ccc3c(n2)NCCC3)cc1C(=O)NC(CC(=O)O)c1cc(Cl)cc(Cl)c1 (stereo not shown) [Example 70]
36 | 120 nM | O=C(O)CC(NC(=O)c1cnn(CCc2ccc3c(n2)NCCC3)c1CO)c1ccc(F)cc1 (stereo not shown) [Example 71]
37 | 124 nM | O=C(O)CC(NC(=O)c1cnn(CCc2ccc3c(n2)NCCC3)c1CO)c1ccccc1 (stereo not shown) [Example 72]
38 | 124 nM | COc1ccc(C(CC(=O)O)NC(=O)c2cnn(CCc3ccc4c(n3)NCCC4)c2CO)cc1 (stereo not shown) [Example 73]
39 | 125 nM | COc1ccc([C@H](CC(=O)O)NC(=O)c2cnn(CCCc3ccc4c(n3)NCCC4)c2)cc1F [Example 74]
40 | 130 nM | O=C(O)CC(NC(=O)c1cnn(CCc2ccc3c(n2)NCCC3)c1CO)c1cccc(F)c1 (stereo not shown) [Example 75]
41 | 131 nM | COc1ccc(C(CC(=O)O)NC(=O)c2cnn(CCc3ccc4c(n3)NCCC4)c2CO)cc1OC (stereo not shown) [Example 76]
42 | 134 nM | Cc1nn(CCc2ccc3c(n2)NCCC3)c(C)c1C(=O)NC(CC(=O)O)c1ccc(C(F)(F)F)cc1 (stereo not shown) [Example 77]
43 | 137 nM | O=C(O)CC(NC(=O)c1cn(CCc2ccc3c(n2)NCCC3)nc1-c1ccccc1)c1ccc(Cl)c(Cl)c1 (stereo not shown) [Example 78]
44 | 178 nM | O=C(O)CC(NC(=O)c1cnn(CCc2ccc3c(n2)NCCC3)c1CO)c1cc(F)cc(F)c1 (stereo not shown) [Example 80]
45 | 215 nM | Cc1cc(C)c(S(=O)(=O)N[C@H](CNC(=O)c2cnn(CCc3cc4c(nc3C)NCCC4)c2)C(=O)O)c(C)c1 [Example 81]
46 | 244 nM | O=C(O)CC(NC(=O)c1cn(CCc2ccc3c(n2)NCCC3)nc1-c1ccccc1)c1cc(Cl)cc(Cl)c1 (stereo not shown) [Example 82]

Row | IC50 | SMILES
47 | 278 nM | Cc1nn(CCc2ccc3c(n2)NCCC3)c(C)c1C(=O)NC(CC(=O)O)c1cc(Cl)cc(Cl)c1 (stereo not shown) [Example 83]
48 | 284 nM | CC(C)(C)OCc1nn(CCc2ccc3c(n2)NCCC3)cc1C(=O)NC(CC(=O)O)c1ccc(Cl)c(Cl)c1 (stereo not shown) [Example 84]
49 | 321 nM | O=C(NCC(C(=O)O)c1ccccc1)c1cnn(CCc2ccc3c(n2)NCCC3)c1 (stereo not shown) [Example 85]
50 | 339 nM | COc1ccc([C@H](CC(=O)O)NC(=O)c2cnn(CCCc3ccc4c(n3)NCCC4)c2)cn1 [Example 87]
51 | 378 nM | COc1ccc([C@H](CC(=O)O)NC(=O)c2cnn(CCCNC3=NCCN3)c2)cn1 [Example 88]
52 | 399 nM | CC(C)CC(CC(=O)O)NC(=O)c1cnn(CCc2ccc3c(n2)NCCC3)c1 (stereo not shown) [Example 89]
53 | 401 nM | O=C(O)CC(CCc1ccccc1)NC(=O)c1cnn(CCc2ccc3c(n2)NCCC3)c1 (stereo not shown) [Example 90]
54 | 410 nM | COc1ccc([C@H](CC(=O)O)NC(=O)c2cnn(CCc3ccc4c(n3)NCCC4)c2-c2ccccc2)cc1F [Example 91]
55 | 416 nM | Cc1ccccc1[C@H](CC(=O)O)NC(=O)c1cnn(CCc2ccc3c(n2)NCCC3)c1CO [Example 92]
56 | 446 nM | CN(C(=O)c1cnn(CCc2ccc3c(n2)NCCC3)c1)[C@H](CC(=O)O)c1cc(Cl)cc(Cl)c1 [Example 93]
57 | 592 nM | COc1ccc([C@H](CC(=O)O)NC(=O)c2cnn(CCCNc3ccccn3)c2)cn1 [Example 94]
58 | 1050 nM | CC(C)(C)OCc1nn(CCc2ccc3c(n2)NCCC3)cc1C(=O)NC(CC(=O)O)c1ccc(C(F)(F)F)cc1 (stereo not shown) [Example 95]
59 | 1100 nM | COC(=O)C[C@H](NC(=O)c1cnn(CCc2ccc3c(n2)NCCC3)c1)c1cc(Br)cc(C(C)(C)C)c1 [Example 96]
60 | 1170 nM | O=C(O)C[C@H](NC(=O)c1cnn(Cc2ccc3c(n2)NCCC3)c1)c1cc(Cl)cc(Cl)c1 [Example 97]
61 | 1410 nM | CC(C)(C)c1cc(Br)cc([C@H](CC(=O)O)NC(=O)c2cnn(Cc3ccc4c(n3)NCCC4)c2)c1 [Example 98]
62 | 1420 nM | O=C(O)CC(Cc1ccccc1)NC(=O)c1cnn(CCc2ccc3c(n2)NCCC3)c1 (stereo not shown) [Example 99]
63 | 1460 nM | Cc1nc2c(cc1Cn1cc(C(=O)NC(CC(=O)O)c3cc(Cl)cc(Cl)c3)c(C)n1)CCCN2 (stereo not shown) [Example 100]
64 | 1460 nM | CCOC(=O)C[C@H](NC(=O)c1cnn(CCc2ccc3c(n2)NCCC3)c1)c1cc(Cl)cc(Cl)c1 [Example 101]
65 | 1980 nM | COc1ccc([C@H](CC(=O)O)NC(=O)c2cnn(Cc3ccc4c(n3)NCCC4)c2)cn1 [Example 102]
66 | 2600 nM | O=C(O)CC(NC(=O)c1cnn(CCc2ccc3c(n2)NCCC3)c1CO)c1ccccc1Cl (stereo not shown) [Example 103]
67 | 3810 nM | CCN(C(=O)c1cnn(CCc2ccc3c(n2)NCCC3)c1)C(CC(C)=O)c1cc(Cl)cc(Cl)c1 (stereo not shown) [Example 104]
